{"source": "paper PMC8191380", "about": "(Nucleosides, nucleotides & nucleic acids, 2019)", "key": {"MT-2 cells": {"tested_on": "MT-2 cells", "assay": "Cytotoxicity in MT-2 cells", "format": "cell-based", "settings": "for CC50: read-out: CC50 (50% cytotoxic concentration)"}, "HBV [1]": {"tested_on": "HBV", "assay": "Anti-HBV assay in HBV-producing HepG2 2.2.15 cells", "format": "cell-based, Hepatitis B virus", "settings": "read-out: EC50 (50% effective concentration; concentration that inhibits 50% of virus replication)"}, "HIV [2]": {"tested_on": "HIV", "settings": "read-out: anti-HIV activity EC50; reported in 1992; cited from earlier work"}, "[3]": {"assay": "Cytotoxicity in MT-2 cells", "format": "cell-based", "settings": "human"}, "HIV-1": {"tested_on": "HIV-1", "settings": "cited from earlier work"}, "HBV [4]": {"tested_on": "HBV", "settings": "cited from earlier work; for EC50: read-out: anti-HBV activity EC50"}, "HBV [5]": {"tested_on": "HBV", "settings": "read-out: anti-HBV activity EC50; cited from earlier work"}, "HIV [6]": {"tested_on": "HIV", "settings": "cited from earlier work"}, "entecavir-resistant HBV": {"tested_on": "entecavir-resistant HBV", "settings": "cited from earlier work"}, "wild-type HBV": {"tested_on": "wild-type HBV", "settings": "cited from earlier work"}, "[7]": {"settings": "cited from earlier work"}, "HBV [8]": {"tested_on": "HBV", "settings": "read-out: anti-HBV activity EC50; cited from earlier work", "remark": "listed apart in the source"}, "[9]": {"settings": "HepG2 2.2.15 cells, day 14, HBV DNA"}, "[10]": {"settings": "Hepatitis B virus, HepG2 2.2.15, 336 h"}}, "note": "Like-named read-outs stand apart in the source and are kept apart here."}
{"smiles": "Cc1cn([C@H]2C[C@H](O)[C@](CO)(N=[N+]=[N-])O2)c(=O)nc1NC1CC1", "note": "[Compound 15, 4′-Azido-N′-cyclopropyl-2′-deoxy-5-methylcytidine]", "values": [{"measurement": "CC50", "setting": "MT-2 cells", "value": "> 100", "unit": "µM"}, {"measurement": "EC50", "setting": "HBV [1]; [9]", "value": "> 100", "unit": "µM"}]}
{"smiles": "Cc1cn([C@H]2C[C@H](O)[C@](CO)(N=[N+]=[N-])O2)c(=O)[nH]c1=O", "note": "[Compound 6, 4′-azido thymidine]", "values": [{"measurement": "EC50", "setting": "HIV [2]", "value": 0.01, "unit": "µM"}, {"measurement": "CC50", "setting": "[3]", "value": "> 100", "unit": "µM"}, {"measurement": "no cytotoxicity up to (concentration)", "setting": "MT-2 cells", "value": "> 100", "unit": "µM"}, {"measurement": "EC50", "setting": "HBV [1]; [10]", "value": "0.63 ± 0.29", "unit": "µM"}]}
{"smiles": "CCOc1nc(=O)n([C@H]2C[C@H](O)[C@](CO)(N=[N+]=[N-])O2)cc1C", "note": "[Compound 12, 4′-Azido-O^4-ethylthymidine]", "values": [{"measurement": "CC50", "setting": "MT-2 cells", "value": "> 100", "unit": "µM"}, {"measurement": "EC50", "setting": "HBV [1]; [9]", "value": "> 100", "unit": "µM"}]}
{"smiles": "Cc1cn([C@H]2C[C@H](O)[C@](CO)(N=[N+]=[N-])O2)c(=O)nc1N", "note": "[Compound 10, 4′-Azido-2′-deoxy-5-methylcytidine]", "values": [{"measurement": "CC50", "setting": "[3]", "value": "> 100", "unit": "µM"}, {"measurement": "no cytotoxicity up to (concentration)", "setting": "MT-2 cells", "value": "> 100", "unit": "µM"}, {"measurement": "EC50", "setting": "HBV [1]; [10]", "value": "5.99 ± 5.54", "unit": "µM"}]}
{"smiles": "C=C1[C@H](CO)[C@@H](O)C[C@@H]1n1cnc2c(=O)[nH]c(N)nc21", "note": "[Entecavir]", "values": [{"measurement": "CC50", "setting": "[3]", "value": "57.2 ± 5.2", "unit": "µM"}, {"measurement": "EC50", "setting": "HBV [1]; [10]", "value": "0.00675 ± 0.000353", "unit": "µM"}]}
{"smiles": "CCNc1nc(=O)n([C@H]2C[C@H](O)[C@](CO)(N=[N+]=[N-])O2)cc1C", "note": "[Compound 14, 4′-Azido-2′-deoxy-N^4-ethyl-5-methylcytidine]", "values": [{"measurement": "CC50", "setting": "[3]", "value": "> 100", "unit": "µM"}, {"measurement": "EC50", "setting": "HBV [1]; [10]", "value": "> 100", "unit": "µM"}]}
{"smiles": "[N-]=[N+]=N[C@]1(CO)O[C@@H](n2cnc3c(=O)[nH]c(N)nc32)C[C@@H]1O", "note": "[Compound 3, 4′-azido-2′-deoxyguanosine]", "values": [{"measurement": "potency against HIV-1 (in words)", "setting": "HIV-1", "value": "highly potent"}, {"measurement": "potency against HBV (in words)", "setting": "HBV [4]", "value": "highly potent"}, {"measurement": "EC50", "setting": "HBV [4]", "value": 0.0097, "unit": "µM"}]}
{"smiles": "[N-]=[N+]=N[C@]1(CO)O[C@@H](n2ccc(N)nc2=O)[C@H](F)[C@@H]1O", "note": "[Compound 5, 2′-deoxy-2′-P-fluoro-4′-azido cytidine]", "values": [{"measurement": "EC50", "setting": "HBV [5]", "value": 0.12, "unit": "µM"}]}
{"smiles": "[N-]=[N+]=N[C@]1(CO)O[C@@H](n2cnc3c(N)nc(N)nc32)C[C@@H]1O", "note": "[Compound 4, 4′-azido-2-amino-2′-deoxyadenosine]", "values": [{"measurement": "potency against HIV-1 (in words)", "setting": "HIV-1", "value": "highly potent"}, {"measurement": "potency against HBV (in words)", "setting": "HBV [4]", "value": "highly potent"}, {"measurement": "EC50", "setting": "HBV [4]", "value": 0.0051, "unit": "µM"}]}
{"smiles": "CNc1nc(=O)n([C@H]2C[C@H](O)[C@](CO)(N=[N+]=[N-])O2)cc1C", "note": "[Compound 13, 4′-Azido-2′-deoxy-N4,5-dimethylcytidine]", "values": [{"measurement": "CC50", "setting": "[3]", "value": "> 100", "unit": "µM"}, {"measurement": "EC50", "setting": "HBV [1]; [10]", "value": "> 100", "unit": "µM"}]}
{"smiles": "N#C[C@]1(CO)O[C@@H](n2cnc3c(N)nc(N)nc32)C[C@@H]1O", "note": "[Compound 2, 4′-cyano-2-amino-2′-deoxyadenosine]", "values": [{"measurement": "anti-HIV activity (in words)", "setting": "HIV [6]", "value": "potent anti-HIV activity"}, {"measurement": "replication of entecavir-resistant HBV (in words)", "setting": "entecavir-resistant HBV", "value": "block the replication"}, {"measurement": "replication of wild-type HBV (in words)", "setting": "wild-type HBV", "value": "block the replication"}]}
{"smiles": "[N-]=[N+]=N[C@]1(CO)O[C@@H](n2ccc(N)nc2=O)C[C@@H]1O", "note": "[4′-azido-2′-deoxycytidine]", "values": [{"measurement": "cytotoxicity CC25", "setting": "[7]", "value": 0.21, "unit": "µM"}]}
{"smiles": "COc1nc(=O)n(C2CC(O)C(CO)(N=[N+]=[N-])O2)cc1C", "note": "(stereo not shown) [Compound 11, 4′-Azido-O^4-methylthymidine]", "values": [{"measurement": "CC50", "setting": "MT-2 cells", "value": "> 100", "unit": "µM"}, {"measurement": "EC50", "setting": "HBV [1]; [9]", "value": "> 100", "unit": "µM"}]}
{"smiles": "N#C[C@]1(CO)O[C@@H](n2cnc3c(=O)[nH]c(N)nc32)C[C@@H]1O", "note": "[Compound 1, 4′-cyano-2′-deoxyguanosine]", "values": [{"measurement": "anti-HIV activity (in words)", "setting": "HIV [6]", "value": "potent anti-HIV activity"}, {"measurement": "replication of entecavir-resistant HBV (in words)", "setting": "entecavir-resistant HBV", "value": "block the replication"}, {"measurement": "replication of wild-type HBV (in words)", "setting": "wild-type HBV", "value": "block the replication"}]}
{"smiles": "Cc1cn([C@H]2C[C@H](F)[C@@H](CO)O2)c(=O)nc1N", "note": "[Compound 8, FddMeC]", "values": [{"measurement": "EC50", "setting": "HBV [8]", "value": 0.54, "unit": "µM"}]}
